Laboratory results reported in the supplement of paper PMC10307832.

Legend:
Assay in all cases: relative viability (nuclei count vs DMSO), 5 days (fraction); higher = more cells survive
AT-7519 + Pictilisib = compound: O=C(NC1CCNCC1)c1n[nH]cc1NC(=O)c1c(Cl)cccc1Cl [AT-7519] + CS(=O)(=O)N1CCN(Cc2cc3nc(-c4cccc5[nH]ncc45)nc(N4CCOCC4)c3s2)CC1 [Pictilisib] (partner 1 µM)
Summary of the method: (§1)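 Each reported value is a median over duplicate plates. It expresses relative viability: treated-well nuclei count divided by vehicle-well nuclei count. Lung cancer cell lines in 1536-well plates were dosed by pin tool a day after seeding, alone with one drug or with a fixed anchor-drug dose plus five library-drug doses (not always all listed) in √10 steps, and nuclei were counted after 5 days.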

AT-7519 + Olaparib = compound: O=C(NC1CCNCC1)c1n[nH]cc1NC(=O)c1c(Cl)cccc1Cl [AT-7519] + O=C(c1cc(Cc2n[nH]c(=O)c3ccccc23)ccc1F)N1CCN(C(=O)C2CC2)CC1 [Olaparib] (partner 8 µM)
Summary of the method: as §1

[1] = compound: C1=CC2=C(C=C(C(=C2N=C1)O)N=NC3=CC4=C(C=C3)C=C(C=C4)S(=O)(=O)O)S(=O)(=O)O + CC(=O)Nc1cccc(-n2c(=O)n(C3CC3)c(=O)c3c(Nc4ccc(I)cc4F)n(C)c(=O)c(C)c32)c1 [Trametinib] (partner 0.02 µM)
Summary of the method: as §1

[2] = compound: C1=CC2=C(C=C(C(=C2N=C1)O)N=NC3=CC4=C(C=C3)C=C(C=C4)S(=O)(=O)O)S(=O)(=O)O + CCNC(=O)c1noc(-c2cc(C(C)C)c(O)cc2O)c1-c1ccc(CN2CCOCC2)cc1 [Luminespib] (partner 0.01 µM)
Summary of the method: as §1

Cell Line | relative viability (AT-7519 + Pictilisib; first compound 0.01 µM) | relative viability (AT-7519 + Pictilisib; first compound 0.03162 µM) | relative viability (AT-7519 + Pictilisib; first compound 0.3162 µM) | relative viability (AT-7519 + Pictilisib; first compound 1 µM) | relative viability (AT-7519 + Olaparib; first compound 0.01 µM) | relative viability (AT-7519 + Olaparib; first compound 0.03162 µM) | relative viability (AT-7519 + Olaparib; first compound 0.3162 µM) | relative viability (AT-7519 + Olaparib; first compound 1 µM) | relative viability ([1]; first compound 0.08 µM) | relative viability ([1]; first compound 0.253 µM) | relative viability ([1]; first compound 0.8 µM) | relative viability ([1]; first compound 2.53 µM) | relative viability ([1]; first compound 8 µM) | relative viability ([2]; first compound 0.08 µM) | relative viability ([2]; first compound 0.253 µM) | relative viability ([2]; first compound 0.8 µM) | relative viability ([2]; first compound 2.53 µM) | relative viability ([2]; first compound 8 µM)
201T | 0.684 | 0.712 | 0.7 | 0.77 | 0.895 | 0.846 | 0.917 | 0.666 | 0.721 | 0.731 | 0.713 | 0.709 | 0.693 | 1.09 | 1.09 | 1.04 | 1.09 | 1.04
A549 | 0.463 | 0.466 | 0.421 | 0.0948 | 0.312 | 0.309 | 0.315 | 0.368 | – | – | – | – | – | – | – | – | – | –
A-427 | 0.711 | 0.713 | 0.574 | 0.253 | 0.806 | 0.745 | 0.713 | 0.382 | 0.721 | 0.719 | 0.718 | 0.781 | 0.732 | 0.891 | 0.823 | 0.851 | 1.04 | 0.727
ABC-1 | 0.837 | 0.688 | 0.527 | 0.202 | 1.02 | 0.646 | 0.608 | 0.454 | – | – | – | – | – | 0.609 | – | – | 0.521 | 0.623
BEN | 0.532 | 0.512 | 0.697 | 0.468 | 1.03 | 1.1 | 1.03 | 0.809 | 1.1 | 1.1 | 0.948 | 1.07 | 1.05 | 0.295 | 0.353 | 0.424 | 0.627 | 0.232
CAL-12T | – | 0.514 | 0.214 | 0.193 | 0.736 | 0.736 | 0.539 | 0.163 | 0.369 | 0.332 | 0.318 | 0.332 | 0.28 | 0.466 | 0.519 | 0.616 | 0.207 | 0.335
COR-L23 | 0.728 | 0.598 | 0.291 | 0.0899 | 0.362 | 0.361 | 0.264 | 0.102 | 0.669 | 0.604 | 0.609 | 0.556 | 0.611 | 0.748 | 0.581 | 0.64 | 0.726 | 0.738
COR-L 105 | 0.372 | 0.423 | 0.254 | 0.246 | 0.71 | 0.714 | 0.726 | 0.564 | 0.514 | 0.437 | 0.469 | 0.48 | 0.476 | 0.786 | 0.722 | 0.99 | 0.697 | 0.489
Calu-6 | 0.863 | 0.919 | 0.689 | 0.131 | 0.622 | 0.641 | 0.688 | 0.262 | – | – | – | – | – | – | – | – | – | –
ChaGo-K-1 | 0.589 | 1.16 | 0.536 | 0.547 | 0.379 | 0.403 | 0.431 | 0.403 | 0.983 | 0.908 | 0.938 | 0.875 | 0.798 | 0.558 | 0.573 | 0.587 | 0.595 | 0.553
EBC-1 | 0.393 | 0.31 | 0.288 | 0.139 | 0.88 | 0.773 | 0.664 | 0.546 | – | – | – | – | – | – | – | – | – | –
EKVX | 0.449 | 0.385 | 0.393 | 0.346 | 0.816 | 0.758 | 0.809 | 0.995 | 0.346 | 0.305 | 0.37 | 0.341 | 0.332 | 0.875 | 0.87 | 0.848 | 0.888 | 0.799
EMC-BAC-2 | 0.56 | 0.524 | 0.506 | 0.538 | 0.508 | 0.48 | 0.506 | 0.56 | 0.964 | 0.853 | 0.912 | 0.997 | 0.911 | 1.25 | 1.05 | 1.2 | 1.24 | 1.13
EPLC-272H | 0.384 | 0.311 | 0.249 | 0.17 | 0.604 | 0.591 | 0.606 | 0.0569 | 0.358 | 0.276 | 0.277 | 0.287 | 0.282 | 0.264 | 0.385 | 0.388 | 0.283 | 0.383
H3255 | 0.537 | 0.502 | 0.441 | 0.313 | 0.581 | 0.514 | 0.527 | 0.451 | 0.588 | 0.614 | 0.66 | 0.654 | 0.624 | 0.838 | 0.876 | 0.864 | 0.855 | 0.78
HARA | 0.361 | 0.354 | 0.554 | 0.279 | 0.753 | 0.478 | 0.482 | 0.301 | 0.878 | 0.442 | 0.869 | 0.82 | 0.532 | 1.27 | 0.913 | 0.796 | 0.803 | 0.761
HCC-15 | 0.766 | 0.764 | 0.59 | 0.323 | 0.712 | 0.772 | 0.73 | 0.355 | 0.427 | 0.387 | 0.428 | 0.377 | 0.365 | 0.345 | 0.383 | 0.304 | 0.428 | 0.368
HCC-44 | 0.588 | 0.625 | 0.552 | 0.688 | 1.08 | 1.01 | 0.937 | 1.02 | 1.04 | 1.01 | 1.09 | 1.04 | 0.797 | – | 1.08 | 1.05 | 1.19 | 1.01
HCC-78 | 0.208 | 0.214 | 0.146 | 0.209 | 1.01 | 0.758 | 0.806 | 0.666 | 0.804 | 0.724 | 0.813 | 0.712 | 0.675 | – | – | – | – | –
HCC-366 | 0.0989 | 0.152 | 0.111 | 0.123 | 0.409 | 0.424 | 0.281 | 0.164 | 0.402 | 0.342 | 0.398 | 0.432 | 0.302 | – | – | – | – | –
